Reference: patent US20130272962A1, “STAINING AGENT FOR CORNEAL STAINING” (FLUORON GMBH, priority 2012, published 2013)
Values belong to the compound of their own block, whether it stands above or below them.

Tests used:
eukaryotes = conditions: cited from earlier work
cornea = conditions: Ünlü et al. 2000; Gamal Eldin et al. 1999; cited from earlier work
[1] = Cahen 1964; product information BLURHEX; cited from earlier work
[2] = tested on: Human Retinal Pigment Epithelial Cells; conditions: Veckeneer et al. 2002 (rabbit eyes); Rezai et al. 2004; cited from earlier work
[3] = Staining of ophthalmic membranes
[4] = Solubility of the dyestuff in liquids for application in the eye; assay type: physicochemical; conditions: for solubility in liquids suitable for application in the anterior and posterior region of the eye: balanced salt solution (BSS), water for injection; for solubility in liquids that are heavier than water: ≧1.01 g/cm^3, e.g. polyethylene glycol
[5] = tested on: Human Corneal Epithelial Cells; conditions: intensified by interaction with light; Kim et al. 1999; cited from earlier work
[6] = Ito et al. 2004; cited from earlier work
[7] = tested on: Human Retinal Pigment Epithelium in Vitro; conditions: Wu et al. 2005; cited from earlier work

SMILES: [2H]O[2H] [Heavy water, D2O]
- concentration in water tolerated by eukaryotes (eukaryotes): ≤ 20%

SMILES: CN(C)c1ccc(C(=C2C=CC(=[N+](C)C)C=C2)c2ccc(N(C)C)cc2)cc1 [Gentian violet]
- corneal oedema (cornea): cause corneal oedemas

SMILES: Cc1cc(-c2ccc(/N=N/c3c(S(=O)(=O)O)cc4cc(S(=O)(=O)O)cc(N)c4c3O)c(C)c2)ccc1/N=N/c1c(S(=O)(=O)O)cc2cc(S(=O)(=O)O)cc(N)c2c1O [trypan blue]
- teratogenic or mutagenic effect [1]: teratogenic or mutagenic effect
- cytotoxicity [2]: cytotoxic

- solubility in liquids suitable for application in the anterior and posterior region of the eye [4]: very readily soluble
- solubility in liquids that are heavier than water [4]: very readily soluble
SMILES: CCN(CC)c1ccc(C(=C2C=CC(=[N+](CC)Cc3cccc(S(=O)(=O)[O-])c3)C=C2)c2ccc(N(CC)Cc3cccc(S(=O)(=O)O)c3)cc2)cc1 [Acid Violet 17]
- coloring of the inner limiting membrane (ILM) and the anterior and posterior lens capsules [3]: capable of coloring both the inner limiting membrane (ILM) and the anterior and posterior lens capsules
- staining of the cornea or constituents thereof [3]: capable of staining the cornea or constituents thereof

SMILES: O=C([O-])c1c(Cl)c(Cl)c(Cl)c(Cl)c1-c1c2cc(I)c(=O)c(I)c-2oc2c(I)c([O-])c(I)cc12.[Na+].[Na+] [Rose bengal]
- cytotoxicity [5]: cytotoxic

- solubility in liquids suitable for application in the anterior and posterior region of the eye [4]: very readily soluble
- solubility in liquids that are heavier than water [4]: very readily soluble
SMILES: CCOc1ccc(Nc2ccc(/C(=C3C=C/C(=[N+](/CC)Cc4cccc(S(=O)(=O)[O-])c4)C=C/3C)c3ccc(N(CC)Cc4cccc(S(=O)(=O)[O-])c4)cc3C)cc2)cc1.[Na+] [BBG, Brilliant Blue G]
- coloring of the inner limiting membrane (ILM) and the anterior and posterior lens capsules [3]: capable of coloring both the inner limiting membrane (ILM) and the anterior and posterior lens capsules
- staining of the cornea or constituents thereof [3]: capable of staining the cornea or constituents thereof

SMILES: CC1(C)C(/C=C/C=C/C=C/C=C2\N(CCCCS(=O)(=O)O)c3ccc4ccccc4c3C2(C)C)=[N+](CCCCS(=O)(=O)[O-])c2ccc3ccccc3c21 [ICG, indocyanine green]
- cytotoxicity [6]: cytotoxic
- phototoxicity [7]: phototoxic
